Measured values reported in patent US10875855B2 (priority 2011, dated 2020).
Where two headings read alike, the source gives them in different places.

Assays:
[1] = tested on: influenza A virus (A/PR/8/34); experiment: microbe, parasite or virus in culture; type: cell-based
influenza virus = experiment: Influenza therapeutic mouse model (in vivo efficacy); parameters: species or system Balb/c mice; details: dosing @ 48 hours post infection, 30 mg/kg BID × 10 days; for Percent Survival / Percent Weight Loss (Day 8): Balb/c mice; for Percent Survival: scored 21 days; for Percent Weight Loss (Day 8): post challenge day 8; for WBP (Penh; Day 6): whole body plethysmography, enhanced pause
[2] = tested on: influenza A virus (A/PR/8/34); experiment: MDCK cytopathic effect (CPE) cell protection assay, ATP detection; type: cell-based
[3] = Influenza A virus, PR/8, Table 1, mean all, class symbol, read-out: bDNA EC99
[4] = Influenza A virus, PR/8, Table 1, viral RNA 50% of control wells, mean all, class symbol, read-out: bDNA EC50
[5] = Influenza A virus, PR/8, exemplary data, bDNA, read-out: EC50
[6] = Influenza A virus, PR/8, MDCK, 72 h, Table 1, MDCK cells, A/PR/8/34, 72 hours, 50% cell protection, mean all, class symbol, read-out: MDCK IC50
[7] = Influenza A virus, PR/8, MDCK, exemplary data, MDCK cell protection, read-out: IC50
[8] = Table 1, mean all, class symbol

Structure (SMILES)	EC99 [1, 3] [µM]	EC50 [1, 4] [nM]	EC50 [1, 5] [nM]	EC99 ([1]; exemplary data, bDNA) [µM]	Percent Survival (influenza virus) [%]	Percent Weight Loss (Day 8) (influenza virus) [%]	WBP (Penh; Day 6) (influenza virus)	IC50 [2, 6] [nM]	IC50 [2, 7] [nM]	bDNA EC99 (uM) [1, 8]	EC50 ([1]; Table 1, viral RNA 50% of control wells, mean all, class symbol, read-out: bDNA EC50) [nM]	IC50 ([2]; Table 1, MDCK cells, A/PR/8/34, 72 hours, 50% cell protection, mean all, class symbol, read-out: MDCK IC50) [nM]
CC(C)(C)[C@@H](CC(=O)O)Nc1nc(-c2c[nH]c3ncc(F)cc23)ncc1F [Compound 2, (R)-3-((5-fluoro-2-(5-fluoro-1H-pyrrolo[2,3-b]pyridin-3-yl)pyrimidin-4-yl)amino)-4,4-dimethylpentanoic acid]	< 0.3	< 300	9	0.0063	100	14	2.03	< 300	4			
CC(C)(C)[C@@H](CC(=O)O)Nc1nc(-c2c[nH]c3ncc(Cl)cc23)ncc1F [Compound 1, (R)-3-(2-(5-Chloro-1H-pyrrolo[2,3-b]pyridin-3-yl)-5-fluoropyrimidin-4-ylamino)-4,4-dimethylpentanoic acid]	< 0.3	< 300	9	0.0094	100	26.6	1.88	< 300	6			
CC1([C@@H](CC(=O)O)Nc2nc(-c3c[nH]c4ncc(F)cc34)c(C#N)cc2F)CCCC1 [Compound 42, (R)-3-(5-cyano-3-fluoro-6-(5-fluoro-1H-pyrrolo[2,3-b]pyridin-3-yl)pyridin-2-ylamino)-3-(1-methylcyclopentyl)propanoic acid]	< 0.3	< 300						< 300				
CC(C)(C)[C@@H](CS(=O)(=O)O)Nc1nc(-c2c[nH]c3ncc(F)cc23)ncc1F [Compound 11, (S)-2-(5-fluoro-2-(5-fluoro-1H-pyrrolo[2,3-b]pyridin-3-yl)pyrimidin-4-ylamino)-3,3-dimethylbutane-1-sulfonic acid]	< 0.3	< 300						< 300				
COCCNS(=O)(=O)C[C@@H](Nc1nc(-c2c[nH]c3ncc(F)cc23)ncc1F)C(C)(C)C [Compound 35, (S)-2-(5-Fluoro-2-(5-fluoro-1H-pyrrolo[2,3-b]pyridin-3-yl)pyrimidin-4-ylamino)-N-(2-methoxyethyl)-3,3-dimethylbutane-1-sulfonamide]	0.3 to 3.3	< 300						< 300				
CC(C)(C)[C@@H](CC(=O)O)Nc1ccnc(-c2c[nH]c3ncc(F)cc23)n1 [Compound 47, (R)-3-((2-(5-fluoro-1H-pyrrolo[2,3-b]pyridin-3-yl)pyrimidin-4-yl)amino)-4,4-dimethylpentanoic acid]	0.3 to 3.3	< 300						< 300				
CC(C)(C)C(Nc1nc(-c2c[nH]c3ncc(F)cc23)ncc1F)C1CC1C(=O)O (single isomer, unassigned) [Compound 52, 2-(1-((5-fluoro-2-(5-fluoro-1H-pyrrolo[2,3-b]pyridin-3-yl)pyrimidin-4-yl)amino)-2,2-dimethylpropyl)cyclopropanecarboxylic acid]										B (0.3 μM≤EC99 (mean all)≤3.3 μM)	< 300	< 300
CC(C)(C)C(CCO)Nc1nc(-c2c[nH]c3ncc(F)cc23)ncc1F (racemic) [Compound 45, (+/−)-3-((5-fluoro-2-(5-fluoro-1H-pyrrolo[2,3-b]pyridin-3-yl)pyrimidin-4-yl)amino)-4,4-dimethylpentan-1-ol]	> 3.3	< 300						300 to 3300				
CC1([C@@H](CC(=O)O)Nc2nc(-c3c[nH]c4ncc(F)cc34)ncc2F)CC1 [Compound 91, (R)-3-((5-fluoro-2-(5-fluoro-1H-pyrrolo[2,3-b]pyridin-3-yl)pyrimidin-4-yl)amino)-3-(1-methylcyclopropyl)propanoic acid]		< 300						< 300		B (0.3 μM≤EC99 (mean all)≤3.3 μM)		
CC(C)(C)[C@@H](CCP(=O)(O)O)Nc1nc(-c2c[nH]c3ncc(F)cc23)ncc1F [Compound 69, (R)-(3-((5-fluoro-2-(5-fluoro-1H-pyrrolo[2,3-b]pyridin-3-yl)pyrimidin-4-yl)amino)-4,4-dimethylpentyl)phosphonic acid]	> 3.3	300 to 3300	800	8.4				300 to 3300	2310			
O=C(O)CC(Nc1nc(-c2c[nH]c3ncc(F)cc23)ncc1F)C12CCC(CC1)C2 (racemic) [Compound 95, (+/−)-3-(Bicyclo[2.2.1]heptan-1-yl)-3-(5-fluoro-2-(5-fluoro-1H-pyrrolo[2,3-b]pyridin-3-yl)pyrimidin-4-ylamino)propanoic acid]	0.3 to 3.3	< 300						< 300				
CC(C)(C)[C@@H](CC(=O)O)Nc1nc(-c2n[nH]c3ncc(F)cc23)c(F)cc1F [Compound 6, (R)-3-((3,5-difluoro-6-(5-fluoro-1H-pyrazolo[3,4-b]pyridin-3-yl)pyridin-2-yl)amino)-4,4-dimethylpentanoic acid]	< 0.3	< 300	15	0.082				< 300	4			
CC1([C@@H](CC(=O)O)Nc2nc(-c3c[nH]c4ncc(F)cc34)ncc2F)CCCC1 [Compound 14]	< 0.3	< 300						< 300				
